Several values for one entry are separate records, joined by “and”; a condition that tells them apart may be missing. Equal entries are not always repeated. Numbers after ± are expanded uncertainties.
Settings: Liquid, Vibrating wire viscometry

CC(F)(F)F [1,1,1-trifluoroethane]
viscosity (254.35 K, 1340 kPa): 0.2054 ± 0.006 mPa·s
viscosity (254.35 K, 1350 kPa): 0.2063 ± 0.006 mPa·s and 0.2059 ± 0.006 mPa·s and 0.2062 ± 0.006 mPa·s
viscosity (254.35 K, 1360 kPa): 0.2057 ± 0.006 mPa·s and 0.2065 ± 0.006 mPa·s
viscosity (254.35 K, 1410 kPa): 0.206 ± 0.006 mPa·s
viscosity (254.35 K, 1450 kPa): 0.2063 ± 0.006 mPa·s
viscosity (254.35 K, 1960 kPa): 0.208 ± 0.006 mPa·s and 0.2082 ± 0.006 mPa·s
viscosity (254.35 K, 1970 kPa): 0.2078 ± 0.006 mPa·s
viscosity (254.35 K, 2010 kPa): 0.2081 ± 0.006 mPa·s and 0.208 ± 0.006 mPa·s
viscosity (254.35 K, 2040 kPa): 0.2083 ± 0.006 mPa·s
viscosity (254.35 K, 2070 kPa): 0.2088 ± 0.006 mPa·s
viscosity (254.35 K, 3110 kPa): 0.2114 ± 0.0061 mPa·s
viscosity (254.35 K, 3160 kPa): 0.2116 ± 0.0061 mPa·s
viscosity (254.35 K, 3170 kPa): 0.2115 ± 0.0061 mPa·s
viscosity (254.35 K, 3210 kPa): 0.2122 ± 0.0061 mPa·s
viscosity (254.35 K, 3280 kPa): 0.212 ± 0.0061 mPa·s
viscosity (254.35 K, 3320 kPa): 0.2119 ± 0.0061 mPa·s
viscosity (254.35 K, 4170 kPa): 0.2145 ± 0.0061 mPa·s
viscosity (254.35 K, 4190 kPa): 0.2147 ± 0.0061 mPa·s
viscosity (254.35 K, 4210 kPa): 0.2147 ± 0.0061 mPa·s
viscosity (254.35 K, 4940 kPa): 0.2173 ± 0.0061 mPa·s
viscosity (254.35 K, 4970 kPa): 0.2167 ± 0.0062 mPa·s
viscosity (254.35 K, 5000 kPa): 0.2176 ± 0.0062 mPa·s
viscosity (254.35 K, 5020 kPa): 0.2172 ± 0.0061 mPa·s
viscosity (254.35 K, 5050 kPa): 0.2171 ± 0.0061 mPa·s
viscosity (254.35 K, 5100 kPa): 0.2176 ± 0.0062 mPa·s
viscosity (263.02 K, 1300 kPa): 0.1828 ± 0.0056 mPa·s
viscosity (263.02 K, 1320 kPa): 0.1828 ± 0.0056 mPa·s and 0.1829 ± 0.0056 mPa·s
viscosity (263.02 K, 1330 kPa): 0.1827 ± 0.0056 mPa·s and 0.1826 ± 0.0056 mPa·s
viscosity (263.02 K, 1970 kPa): 0.1855 ± 0.0056 mPa·s
viscosity (263.02 K, 1980 kPa): 0.1857 ± 0.0056 mPa·s
viscosity (263.02 K, 1990 kPa): 0.1855 ± 0.0056 mPa·s
viscosity (263.02 K, 2010 kPa): 0.1851 ± 0.0056 mPa·s
viscosity (263.02 K, 2020 kPa): 0.1857 ± 0.0056 mPa·s and 0.1859 ± 0.0056 mPa·s
viscosity (263.02 K, 3420 kPa): 0.1899 ± 0.0058 mPa·s
viscosity (263.02 K, 3430 kPa): 0.1898 ± 0.0058 mPa·s
viscosity (263.02 K, 3450 kPa): 0.1898 ± 0.0058 mPa·s
viscosity (263.02 K, 3520 kPa): 0.1903 ± 0.0057 mPa·s
viscosity (263.02 K, 3560 kPa): 0.1901 ± 0.0057 mPa·s
viscosity (263.02 K, 3590 kPa): 0.1898 ± 0.0058 mPa·s
viscosity (263.02 K, 3640 kPa): 0.1906 ± 0.0057 mPa·s
viscosity (263.02 K, 3670 kPa): 0.1905 ± 0.0057 mPa·s and 0.1908 ± 0.0057 mPa·s
viscosity (263.02 K, 4800 kPa): 0.1943 ± 0.0059 mPa·s
viscosity (263.02 K, 4840 kPa): 0.194 ± 0.0058 mPa·s
viscosity (263.02 K, 4870 kPa): 0.194 ± 0.0058 mPa·s
viscosity (263.02 K, 4910 kPa): 0.1942 ± 0.0059 mPa·s
viscosity (263.02 K, 4950 kPa): 0.1939 ± 0.0059 mPa·s
viscosity (263.02 K, 6990 kPa): 0.2018 ± 0.0059 mPa·s
viscosity (263.02 K, 7090 kPa): 0.201 ± 0.0059 mPa·s
viscosity (263.02 K, 7160 kPa): 0.2015 ± 0.0059 mPa·s
viscosity (263.02 K, 7200 kPa): 0.2011 ± 0.0059 mPa·s
viscosity (263.02 K, 7230 kPa): 0.2016 ± 0.0059 mPa·s
viscosity (263.02 K, 7310 kPa): 0.2013 ± 0.0059 mPa·s and 0.2019 ± 0.0059 mPa·s
viscosity (263.02 K, 7380 kPa): 0.2024 ± 0.0059 mPa·s
viscosity (263.02 K, 7390 kPa): 0.2015 ± 0.0059 mPa·s
viscosity (263.02 K, 7420 kPa): 0.2011 ± 0.0059 mPa·s
viscosity (263.02 K, 7460 kPa): 0.2024 ± 0.0059 mPa·s and 0.2022 ± 0.0059 mPa·s
viscosity (263.02 K, 7520 kPa): 0.2017 ± 0.0059 mPa·s
viscosity (273.21 K, 1420 kPa): 0.1617 ± 0.0052 mPa·s
viscosity (273.21 K, 1430 kPa): 0.1619 ± 0.0053 mPa·s
viscosity (273.21 K, 1440 kPa): 0.1619 ± 0.0053 mPa·s
viscosity (273.21 K, 1450 kPa): 0.1619 ± 0.0053 mPa·s
viscosity (273.21 K, 1810 kPa): 0.1629 ± 0.0053 mPa·s
viscosity (273.21 K, 1820 kPa): 0.1627 ± 0.0053 mPa·s
viscosity (273.21 K, 1860 kPa): 0.1629 ± 0.0053 mPa·s
viscosity (273.21 K, 1890 kPa): 0.1626 ± 0.0053 mPa·s
viscosity (273.21 K, 3450 kPa): 0.1681 ± 0.0054 mPa·s and 0.1679 ± 0.0053 mPa·s and 0.1682 ± 0.0054 mPa·s
viscosity (273.21 K, 3460 kPa): 0.1677 ± 0.0053 mPa·s
viscosity (273.21 K, 3490 kPa): 0.1682 ± 0.0054 mPa·s and 0.1678 ± 0.0053 mPa·s
viscosity (273.21 K, 3500 kPa): 0.168 ± 0.0054 mPa·s
viscosity (273.21 K, 4850 kPa): 0.1724 ± 0.0055 mPa·s
viscosity (273.21 K, 4860 kPa): 0.1722 ± 0.0054 mPa·s
viscosity (273.21 K, 4880 kPa): 0.1724 ± 0.0054 mPa·s and 0.1719 ± 0.0055 mPa·s
viscosity (273.21 K, 4910 kPa): 0.1722 ± 0.0054 mPa·s
viscosity (273.21 K, 4960 kPa): 0.1724 ± 0.0055 mPa·s
viscosity (273.21 K, 5010 kPa): 0.172 ± 0.0055 mPa·s
viscosity (273.21 K, 5030 kPa): 0.1723 ± 0.0055 mPa·s
viscosity (273.21 K, 7780 kPa): 0.1804 ± 0.0055 mPa·s
viscosity (273.21 K, 7800 kPa): 0.1805 ± 0.0055 mPa·s
viscosity (273.21 K, 7810 kPa): 0.1806 ± 0.0055 mPa·s
viscosity (273.21 K, 7900 kPa): 0.1803 ± 0.0055 mPa·s
viscosity (273.21 K, 7960 kPa): 0.1805 ± 0.0055 mPa·s
viscosity (273.21 K, 9530 kPa): 0.1854 ± 0.0056 mPa·s
viscosity (273.21 K, 9540 kPa): 0.1852 ± 0.0056 mPa·s
viscosity (273.21 K, 9580 kPa): 0.1856 ± 0.0056 mPa·s
viscosity (273.21 K, 9610 kPa): 0.1851 ± 0.0056 mPa·s
viscosity (273.21 K, 9770 kPa): 0.185 ± 0.0056 mPa·s
viscosity (273.21 K, 9880 kPa): 0.1853 ± 0.0056 mPa·s
viscosity (283.22 K, 1240 kPa): 0.1416 ± 0.005 mPa·s
viscosity (283.22 K, 1260 kPa): 0.1418 ± 0.0049 mPa·s
viscosity (283.22 K, 1470 kPa): 0.1416 ± 0.0049 mPa·s
viscosity (283.22 K, 1510 kPa): 0.1424 ± 0.005 mPa·s
viscosity (283.22 K, 1530 kPa): 0.1424 ± 0.005 mPa·s
viscosity (283.22 K, 1570 kPa): 0.1429 ± 0.005 mPa·s
viscosity (283.22 K, 1900 kPa): 0.1433 ± 0.005 mPa·s
viscosity (283.22 K, 1930 kPa): 0.1433 ± 0.005 mPa·s
viscosity (283.22 K, 1950 kPa): 0.1432 ± 0.005 mPa·s
viscosity (283.22 K, 1970 kPa): 0.144 ± 0.005 mPa·s
viscosity (283.22 K, 2000 kPa): 0.1435 ± 0.005 mPa·s
viscosity (283.22 K, 2050 kPa): 0.1442 ± 0.005 mPa·s
viscosity (283.22 K, 3700 kPa): 0.1495 ± 0.0051 mPa·s
viscosity (283.22 K, 3720 kPa): 0.1496 ± 0.0051 mPa·s
viscosity (283.22 K, 3850 kPa): 0.1497 ± 0.0051 mPa·s
viscosity (283.22 K, 5130 kPa): 0.1537 ± 0.0052 mPa·s
viscosity (283.22 K, 5220 kPa): 0.1543 ± 0.0051 mPa·s
viscosity (283.22 K, 5260 kPa): 0.1536 ± 0.0052 mPa·s and 0.154 ± 0.0052 mPa·s
viscosity (283.22 K, 7400 kPa): 0.1615 ± 0.0053 mPa·s
viscosity (283.22 K, 7500 kPa): 0.161 ± 0.0052 mPa·s
viscosity (283.22 K, 7540 kPa): 0.1607 ± 0.0052 mPa·s
viscosity (283.22 K, 9720 kPa): 0.1679 ± 0.0053 mPa·s
viscosity (283.22 K, 9780 kPa): 0.1678 ± 0.0053 mPa·s
viscosity (283.22 K, 9940 kPa): 0.168 ± 0.0053 mPa·s
viscosity (283.22 K, 10050 kPa): 0.1678 ± 0.0053 mPa·s
viscosity (293.17 K, 1370 kPa): 0.1253 ± 0.0047 mPa·s
viscosity (293.17 K, 1390 kPa): 0.1255 ± 0.0047 mPa·s
viscosity (293.17 K, 1400 kPa): 0.1252 ± 0.0047 mPa·s
viscosity (293.17 K, 1420 kPa): 0.1256 ± 0.0047 mPa·s
viscosity (293.17 K, 1430 kPa): 0.1258 ± 0.0047 mPa·s and 0.1256 ± 0.0047 mPa·s
viscosity (293.17 K, 1440 kPa): 0.1258 ± 0.0047 mPa·s
viscosity (293.17 K, 1850 kPa): 0.1268 ± 0.0047 mPa·s
viscosity (293.17 K, 1860 kPa): 0.1266 ± 0.0047 mPa·s
viscosity (293.17 K, 1890 kPa): 0.1271 ± 0.0047 mPa·s
viscosity (293.17 K, 1920 kPa): 0.1267 ± 0.0047 mPa·s
viscosity (293.17 K, 1940 kPa): 0.127 ± 0.0047 mPa·s
viscosity (293.17 K, 3820 kPa): 0.1333 ± 0.0048 mPa·s
viscosity (293.17 K, 3830 kPa): 0.1336 ± 0.0048 mPa·s
viscosity (293.17 K, 3850 kPa): 0.1337 ± 0.0048 mPa·s
viscosity (293.17 K, 3860 kPa): 0.1335 ± 0.0048 mPa·s
viscosity (293.17 K, 3870 kPa): 0.1333 ± 0.0048 mPa·s
viscosity (293.17 K, 3890 kPa): 0.1335 ± 0.0048 mPa·s and 0.1336 ± 0.0048 mPa·s
viscosity (293.17 K, 4900 kPa): 0.1378 ± 0.0049 mPa·s
viscosity (293.17 K, 4920 kPa): 0.1377 ± 0.0049 mPa·s
viscosity (293.17 K, 4960 kPa): 0.138 ± 0.0049 mPa·s
viscosity (293.17 K, 4970 kPa): 0.138 ± 0.0049 mPa·s
viscosity (293.17 K, 5010 kPa): 0.1381 ± 0.0049 mPa·s
viscosity (293.17 K, 7450 kPa): 0.1448 ± 0.005 mPa·s
viscosity (293.17 K, 7490 kPa): 0.1446 ± 0.005 mPa·s
viscosity (293.17 K, 7520 kPa): 0.145 ± 0.005 mPa·s
viscosity (293.17 K, 7550 kPa): 0.1449 ± 0.005 mPa·s
viscosity (293.17 K, 7560 kPa): 0.1449 ± 0.005 mPa·s
viscosity (293.17 K, 7590 kPa): 0.1451 ± 0.005 mPa·s
viscosity (293.17 K, 7620 kPa): 0.1453 ± 0.005 mPa·s
viscosity (293.17 K, 9740 kPa): 0.1507 ± 0.0051 mPa·s
viscosity (293.17 K, 9770 kPa): 0.1506 ± 0.0051 mPa·s
viscosity (293.17 K, 9820 kPa): 0.1507 ± 0.0051 mPa·s
viscosity (293.17 K, 9880 kPa): 0.151 ± 0.0051 mPa·s
viscosity (293.17 K, 9970 kPa): 0.1511 ± 0.0051 mPa·s
viscosity (293.17 K, 10070 kPa): 0.1517 ± 0.0051 mPa·s
